# Reference: US10131657B2, “Bromodomain inhibitors” (AbbVie Inc., priority 2013, dated 2018)
# Tested on: breast cancer cell line MX-1
# Assay: MX-1 cell line proliferation assay, Method A
# Format: cell-based
# Conditions: Homo sapiens, MX1; MX-1 cells, 96-well, 72 hours, Cell Titer Glo; read-out: Cellular proliferation: EC50 Method A
# Procedure: The impact of compounds of the Examples on cancer cell proliferation was determined using the breast cancer cell line MX-1 (ATCC) in a 3-day proliferation assay and the data are reported in Table 1.
# MX-1 cells were maintained in RPMI 1640 medium (Sigma) supplemented with 10% FBS at 37° C. and an atmosphere of 5% CO2. For compound testing, MX-1 cells were plated in 96-well black bottom plates at a density of 5000 cells/well in 90 μL of culture media and incubated at 370 overnight to allow cell adhesion and spreading. Compound dilution series were prepared in DMSO via a 3-fold serial dilution from 3 mM to 0.1 μM. The DMSO dilution series were then diluted 1:100 in phosphate buffered saline, and 10 μL of the resulted solution were added to the appropriate wells of the MX-1 cell plate. The final compound concentrations in the wells were 3, 1, 0.3, 0.1, 0.03, 0.01, 0.003, 0.001, 0.0003 and 0.0001 μM.
# Luminescence readings from the Cell Titer Glo assay were normalized to the DMSO treated cells and analyzed using the GraphPad Prism software with sigmoidal curve fitting to obtain ECs50s. The minimum significant ratio (MSR) was determined to evaluate assay reproducibility (Eastwood et al., (2006) J Biomol Screen, 11: 253-261).
row,EC50 [nM],Compound
1,52.6,"COCCNc1cccc(Oc2ccc(S(C)(=O)=O)cc2-c2cn(C)c(=O)c3[nH]ccc23)c1 [Example 64, 4-[2-{3-[(2-methoxyethyl)amino]phenoxy}-5-(methylsulfonyl)phenyl]-6-methyl-1,6-dihydro-7H-pyrrolo[2,3-c]pyridin-7-one]"
2,152,Cn1cc(-c2cc(S(C)(=O)=O)ccc2Oc2cccc(NS(=O)(=O)c3ccc(F)cc3Cl)c2)c2cc[nH]c2c1=O [Example 58]
3,156,"COCCN[C@H]1CC[C@H](Nc2ccc(S(C)(=O)=O)cc2-c2cn(C)c(=O)c3[nH]ccc23)CC1 [Example 111, 4-[2-({trans-4-[(2-methoxyethyl)amino]cyclohexyl}amino)-5-(methylsulfonyl)phenyl]-6-methyl-1,6-dihydro-7H-pyrrolo[2,3-c]pyridin-7-one]"
4,44.9,"CCS(=O)(=O)Nc1cc(-c2cn(C)c(=O)c3[nH]ccc23)c(Oc2ccc(F)cc2F)cc1C(N)=O [Example 8, 5-(2,4-difluorophenoxy)-2-[(ethylsulfonyl)amino]-4-(6-methyl-7-oxo-6,7-dihydro-1H-pyrrolo[2,3-c]pyridin-4-yl)benzamide]"
5,762,"Cn1cc(-c2cc(S(C)(=O)=O)ccc2Oc2ccc(F)cc2F)c2cc(CN3CCN(c4nccs4)CC3)[nH]c2c1=O [Example 114, 4-[2-(2,4-difluorophenoxy)-5-(methylsulfonyl)phenyl]-6-methyl-2-{[4-(1,3-thiazol-2-yl)piperazin-1-yl]methyl}-1,6-dihydro-7H-pyrrolo[2,3-c]pyridin-7-one]"
6,> 1000,"Cn1cc(-c2cc(S(C)(=O)=O)ccc2Oc2cccc(NS(=O)(=O)c3cccc([N+](=O)[O-])c3)c2)c2cc[nH]c2c1=O [Example 51, N-{3-[2-(6-methyl-7-oxo-6,7-dihydro-1H-pyrrolo[2,3-c]pyridin-4-yl)-4-(methylsulfonyl)phenoxy]phenyl}-3-nitrobenzenesulfonamide]"
7,69.2,"Cn1cc(-c2cc(S(C)(=O)=O)ccc2Oc2cccc(NCC3CCOC3)c2)c2cc[nH]c2c1=O (stereo not drawn) [Example 77, 6-methyl-4-[5-(methylsulfonyl)-2-{3-[(tetrahydrofuran-3-ylmethyl)amino]phenoxy}phenyl]-1,6-dihydro-7H-pyrrolo[2,3-c]pyridin-7-one]"
8,134,"Cn1cc(-c2cc(S(C)(=O)=O)ccc2Oc2cccc(C(=O)NC3CCCCC3)c2)c2cc[nH]c2c1=O [Example 25, N-cyclohexyl-3-[2-(6-methyl-7-oxo-6,7-dihydro-1H-pyrrolo[2,3-c]pyridin-4-yl)-4-(methylsulfonyl)phenoxy]benzamide]"
9,50.6,"Cn1cc(-c2cc(S(C)(=O)=O)ccc2Oc2cccc(NCc3ccccc3F)c2)c2cc[nH]c2c1=O [Example 67, 4-[2-{3-[(2-fluorobenzyl)amino]phenoxy}-5-(methylsulfonyl)phenyl]-6-methyl-1,6-dihydro-7H-pyrrolo[2,3-c]pyridin-7-one]"
10,337,"Cn1cc(-c2cc(S(C)(=O)=O)ccc2Oc2ccc(F)cc2F)c2cc(CN3CCC(N4CCOCC4)CC3)[nH]c2c1=O [Example 130, 4-[2-(2,4-difluorophenoxy)-5-(methylsulfonyl)phenyl]-6-methyl-2-{[4-(morpholin-4-yl)piperidin-1-yl]methyl}-1,6-dihydro-7H-pyrrolo[2,3-c]pyridin-7-one]"
11,103,"Cn1cc(-c2cc(S(C)(=O)=O)ccc2Oc2cccc(NS(=O)(=O)Cc3ccccc3)c2)c2cc[nH]c2c1=O [Example 38, N-{3-[2-(6-methyl-7-oxo-6,7-dihydro-1H-pyrrolo[2,3-c]pyridin-4-yl)-4-(methylsulfonyl)phenoxy]phenyl}-1-phenylmethanesulfonamide]"
12,93.3,"Cn1cc(-c2cc(S(C)(=O)=O)ccc2Oc2cccc(NCc3cccc(OC(F)(F)F)c3)c2)c2cc[nH]c2c1=O [Example 69, 6-methyl-4-[5-(methylsulfonyl)-2-(3-{[3-(trifluoromethoxy)benzyl]amino}phenoxy)phenyl]-1,6-dihydro-7H-pyrrolo[2,3-c]pyridin-7-one]"
13,89.9,"CCS(=O)(=O)c1ccc(Oc2ccc(Cl)cc2CCCN2CCOCC2)c(-c2cn(C)c(=O)c3[nH]ccc23)c1 [Example 83, 4-[2-{4-chloro-2-[3-(morpholin-4-yl)propyl]phenoxy}-5-(ethylsulfonyl)phenyl]-6-methyl-1,6-dihydro-7H-pyrrolo[2,3-c]pyridin-7-one]"
14,176,"COc1ccc(S(=O)(=O)N2CCC(Nc3ccc(S(C)(=O)=O)cc3-c3cn(C)c(=O)c4[nH]ccc34)CC2)cc1 [Example 104, 4-[2-({1-[(4-methoxyphenyl)sulfonyl]piperidin-4-yl}amino)-5-(methylsulfonyl)phenyl]-6-methyl-1,6-dihydro-7H-pyrrolo[2,3-c]pyridin-7-one]"
15,64.1,"Cn1cc(-c2cc(S(C)(=O)=O)ccc2Oc2cccc(NCc3cccc(C#N)c3)c2)c2cc[nH]c2c1=O [Example 60, 3-[({3-[2-(6-methyl-7-oxo-6,7-dihydro-1H-pyrrolo[2,3-c]pyridin-4-yl)-4-(methylsulfonyl)phenoxy]phenyl}amino)methyl]benzonitrile]"
16,452,"CCS(=O)(=O)Nc1cc(-c2cn(C)c(=O)c3[nH]ccc23)c(Oc2ccc(F)cc2F)cc1C(=O)O [Example 11, 5-(2,4-difluorophenoxy)-2-[(ethylsulfonyl)amino]-4-(6-methyl-7-oxo-6,7-dihydro-1H-pyrrolo[2,3-c]pyridin-4-yl)benzoic acid]"
17,51.1,"Cn1cc(-c2cc(S(C)(=O)=O)ccc2Oc2cccc(NCc3ccc(F)cc3)c2)c2cc[nH]c2c1=O [Example 62, 4-[2-{3-[(4-fluorobenzyl)amino]phenoxy}-5-(methylsulfonyl)phenyl]-6-methyl-1,6-dihydro-7H-pyrrolo[2,3-c]pyridin-7-one]"
18,112,"CN(C)c1cccc(CNc2cccc(Oc3ccc(S(C)(=O)=O)cc3-c3cn(C)c(=O)c4[nH]ccc34)c2)c1 [Example 75, 4-[2-(3-{[3-(dimethylamino)benzyl]amino}phenoxy)-5-(methylsulfonyl)phenyl]-6-methyl-1,6-dihydro-7H-pyrrolo[2,3-c]pyridin-7-one]"
19,29.1,"CCS(=O)(=O)Nc1cc(-c2cn(C)c(=O)c3[nH]ccc23)c(Oc2ccc(F)cc2F)cc1CO [Example 6, N-[4-(2,4-difluorophenoxy)-2-(hydroxymethyl)-5-(6-methyl-7-oxo-6,7-dihydro-1H-pyrrolo[2,3-c]pyridin-4-yl)phenyl]ethanesulfonamide]"
20,47.7,"CCS(=O)(=O)Nc1ccc(Oc2ccc(F)cc2F)c(-c2cn(C)c(=O)c3[nH]c(C#CCOC)cc23)c1 [Example 163, N-{4-(2,4-difluorophenoxy)-3-[2-(3-methoxyprop-1-yn-1-yl)-6-methyl-7-oxo-6,7-dihydro-1H-pyrrolo[2,3-c]pyridin-4-yl]phenyl}ethanesulfonamide]"
21,45.1,"CN(C)CCCOc1ccc(CNc2cccc(Oc3ccc(S(C)(=O)=O)cc3-c3cn(C)c(=O)c4[nH]ccc34)c2)cc1 [Example 74, 4-{2-[3-({4-[3-(dimethylamino)propoxy]benzyl}amino)phenoxy]-5-(methylsulfonyl)phenyl}-6-methyl-1,6-dihydro-7H-pyrrolo[2,3-c]pyridin-7-one]"
22,62.4,"Cn1cc(-c2cc(S(C)(=O)=O)ccc2Oc2cccc(NCc3cc(F)cc(F)c3)c2)c2cc[nH]c2c1=O [Example 73, 4-[2-{3-[(3,5-difluorobenzyl)amino]phenoxy}-5-(methylsulfonyl)phenyl]-6-methyl-1,6-dihydro-7H-pyrrolo[2,3-c]pyridin-7-one]"
23,202,"CCS(=O)(=O)c1ccc(OCC2CC2(F)F)c(-c2cn(C)c(=O)c3[nH]c(CN4CCN(c5ccncc5)CC4)cc23)c1 (stereo not drawn) [Example 16, 4-{2-[(2,2-difluorocyclopropyl)methoxy]-5-(ethylsulfonyl)phenyl}-6-methyl-2-{[4-(pyridin-4-yl)piperazin-1-yl]methyl}-1,6-dihydro-7H-pyrrolo[2,3-c]pyridin-7-one]"
24,68.4,"CCS(=O)(=O)Nc1cc(-c2cn(C)c(=O)c3[nH]ccc23)c(Oc2ccc(F)cc2F)cc1C(=O)NC1CCOCC1 [Example 12, 5-(2,4-difluorophenoxy)-2-[(ethylsulfonyl)amino]-4-(6-methyl-7-oxo-6,7-dihydro-1H-pyrrolo[2,3-c]pyridin-4-yl)-N-(tetrahydro-2H-pyran-4-yl)benzamide]"
25,40.5,"Cc1cccc(S(=O)(=O)Nc2cccc(Oc3ccc(S(C)(=O)=O)cc3-c3cn(C)c(=O)c4[nH]ccc34)c2)c1 [Example 50, 3-methyl-N-{3-[2-(6-methyl-7-oxo-6,7-dihydro-1H-pyrrolo[2,3-c]pyridin-4-yl)-4-(methylsulfonyl)phenoxy]phenyl}benzenesulfonamide]"
26,139,"CCS(=O)(=O)Nc1cc(-c2cn(C)c(=O)c3[nH]ccc23)c(Oc2ccc(F)cc2F)cc1CNC1CCCC1 [Example 7, N-{2-[(cyclopentylamino)methyl]-4-(2,4-difluorophenoxy)-5-(6-methyl-7-oxo-6,7-dihydro-1H-pyrrolo[2,3-c]pyridin-4-yl)phenyl}ethanesulfonamide]"
27,40,"Cn1cc(-c2cc(S(C)(=O)=O)ccc2Oc2cccc(NCC3CCCO3)c2)c2cc[nH]c2c1=O (stereo not drawn) [Example 65, 6-methyl-4-[5-(methylsulfonyl)-2-{3-[(tetrahydrofuran-2-ylmethyl)amino]phenoxy}phenyl]-1,6-dihydro-7H-pyrrolo[2,3-c]pyridin-7-one]"
